According to patent publication US20230398130A1, “METHODS AND COMPOSITIONS FOR DIFFERENTIATING STEM CELLS” (Massachusetts Institute of Technology, priority 2020, published 2023):

Experiments:
ISC-enriched organoids [1] = test: Primary screen, 384-well 2.5-D organoid differentiation (ENR+CD, 6 days): basal lysozyme secretion (LYZ.NS); assay type: cell-based, murine; conditions: primary screen; for Dose.FC.LYZ.NS: FC vs plate median; for Z.LYZ.NS: standard z score; for SSMD.LYZ.NS: strictly standardized mean difference
Text: (§1) High-throughput screening.

ISC-enriched organoids [2] = test: Primary screen, 384-well 2.5-D organoid differentiation (ENR+CD, 6 days, Target Selective Inhibitor Library, vs whole-plate median): ATP (CellTiter-Glo 3D, CTG); conditions: primary screen; for Dose.FC.CTG: FC vs plate median; for Z.CTG: standard z score; for SSMD.CTG: strictly standardized mean difference
ISC-enriched organoids [3] = test: Primary screen, 384-well 2.5-D organoid differentiation (ENR+CD, 6 days): carbachol-induced lysozyme secretion (LYZ.S); assay type: cell-based, murine; conditions: primary screen; for Dose.FC.LYZ.S: FC vs plate median; for Z.LYZ.S: standard z score; for SSMD.LYZ.S: strictly standardized mean difference
Text: as §1

[4] = 1st of the 4 dose lines of the treatment (dose not given)
[5] = 2nd of the 4 dose lines of the treatment (dose not given)
[6] = 3rd of the 4 dose lines of the treatment (dose not given)
[7] = 4th of the 4 dose lines of the treatment (dose not given)

SMILES | Dose.FC.LYZ.NS (ISC-enriched organoids [1]; Dose 0.08 uM) | Z.LYZ.NS (ISC-enriched organoids [1]; Dose 0.08 uM) | Dose.FC.LYZ.NS (ISC-enriched organoids [1]; Dose 0.40 uM) | Z.LYZ.NS (ISC-enriched organoids [1]; Dose 0.40 uM) | Dose.FC.LYZ.NS (ISC-enriched organoids [1]; Dose 2.00 uM) | Z.LYZ.NS (ISC-enriched organoids [1]; Dose 2.00 uM) | Dose.FC.LYZ.NS (ISC-enriched organoids [1]; Dose 10.00 uM) | Z.LYZ.NS (ISC-enriched organoids [1]; Dose 10.00 uM) | SSMD.LYZ.NS (ISC-enriched organoids [1]; [4]) | SSMD.LYZ.NS (ISC-enriched organoids [1]; [5]) | SSMD.LYZ.NS (ISC-enriched organoids [1]; [6]) | SSMD.LYZ.NS (ISC-enriched organoids [1]; [7]) | Dose.FC.CTG (ISC-enriched organoids [2]; Dose 0.08 uM) | Z.CTG (ISC-enriched organoids [2]; Dose 0.08 uM) | Dose.FC.CTG (ISC-enriched organoids [2]; Dose 0.40 uM) | Z.CTG (ISC-enriched organoids [2]; Dose 0.40 uM) | Dose.FC.CTG (ISC-enriched organoids [2]; Dose 2.00 uM) | Z.CTG (ISC-enriched organoids [2]; Dose 2.00 uM) | Dose.FC.CTG (ISC-enriched organoids [2]; Dose 10.00 uM) | Z.CTG (ISC-enriched organoids [2]; Dose 10.00 uM) | further results
CC(C)(C)c1cc(C(C)(C)C)c(NC(=O)c2c[nH]c3ccccc3c2=O)cc1O [Ivacaftor (VX-770)] | 0.099 log 2 fold change | 0.864 | 0.127 log 2 fold change | 1.109 | 0.082 log 2 fold change | 0.717 | −0.142 log 2 fold change | −1.240 | 0.882 | 0.825 | 0.582 | −1.167 | 0.234 log 2 fold change | 0.558 | 0.145 log 2 fold change | 0.347 | −0.148 log 2 fold change | −0.354 | −0.470 log 2 fold change | −1.123 | SSMD.CTG (ISC-enriched organoids [2]; [4]): 0.431; SSMD.CTG (ISC-enriched organoids [2]; [5]): 0.280; SSMD.CTG (ISC-enriched organoids [2]; [6]): −0.331; SSMD.CTG (ISC-enriched organoids [2]; [7]): −1.317; Dose.FC.LYZ.S (ISC-enriched organoids [3]; Dose 0.08 uM): 0.132 log 2 fold change; Dose.FC.LYZ.S (ISC-enriched organoids [3]; Dose 0.40 uM): 0.189 log 2 fold change; Dose.FC.LYZ.S (ISC-enriched organoids [3]; Dose 2.00 uM): 0.019 log 2 fold change; Dose.FC.LYZ.S (ISC-enriched organoids [3]; Dose 10.00 uM): −0.253 log 2 fold change; Z.LYZ.S (ISC-enriched organoids [3]; [4]): 0.853; Z.LYZ.S (ISC-enriched organoids [3]; [5]): 1.220; Z.LYZ.S (ISC-enriched organoids [3]; [6]): 0.124; Z.LYZ.S (ISC-enriched organoids [3]; [7]): −1.636; SSMD.LYZ.S (ISC-enriched organoids [3]; [4]): 0.705; SSMD.LYZ.S (ISC-enriched organoids [3]; [5]): 1.209; SSMD.LYZ.S (ISC-enriched organoids [3]; [6]): 0.148; SSMD.LYZ.S (ISC-enriched organoids [3]; [7]): −1.350
Clc1ccc(N/N=C(\c2ccccc2)c2ccccn2)nc1 [JIB-04] | 0.178 log 2 fold change | 1.549 | 0.030 log 2 fold change | 0.264 | 0.006 log 2 fold change | 0.048 | −0.153 log 2 fold change | −1.330 | 0.941 | 0.239 | 0.042 | −0.845 | 0.254 log 2 fold change | 0.607 | 0.108 log 2 fold change | 0.258 | 0.092 log 2 fold change | 0.219 | −0.181 log 2 fold change | −0.433 | SSMD.CTG (ISC-enriched organoids [2]; [4]): 0.552; SSMD.CTG (ISC-enriched organoids [2]; [5]): 0.331; SSMD.CTG (ISC-enriched organoids [2]; [6]): 0.282; SSMD.CTG (ISC-enriched organoids [2]; [7]): −0.531; Dose.FC.LYZ.S (ISC-enriched organoids [3]; Dose 0.08 uM): 0.203 log 2 fold change; Dose.FC.LYZ.S (ISC-enriched organoids [3]; Dose 0.40 uM): 0.084 log 2 fold change; Dose.FC.LYZ.S (ISC-enriched organoids [3]; Dose 2.00 uM): −0.056 log 2 fold change; Dose.FC.LYZ.S (ISC-enriched organoids [3]; Dose 10.00 uM): −0.085 log 2 fold change; Z.LYZ.S (ISC-enriched organoids [3]; [4]): 1.312; Z.LYZ.S (ISC-enriched organoids [3]; [5]): 0.545; Z.LYZ.S (ISC-enriched organoids [3]; [6]): −0.365; Z.LYZ.S (ISC-enriched organoids [3]; [7]): −0.552; SSMD.LYZ.S (ISC-enriched organoids [3]; [4]): 0.895; SSMD.LYZ.S (ISC-enriched organoids [3]; [5]): 0.407; SSMD.LYZ.S (ISC-enriched organoids [3]; [6]): −0.339; SSMD.LYZ.S (ISC-enriched organoids [3]; [7]): −0.195
O=C(Nc1ccccc1)N1CCN(c2nc(-c3ccccc3)ns2)CC1 [JNJ-1661010] | 0.122 log 2 fold change | 1.066 | 0.075 log 2 fold change | 0.653 | 0.103 log 2 fold change | 0.897 | 0.047 log 2 fold change | 0.406 | 0.805 | 0.332 | 0.332 | 0.237 | −0.094 log 2 fold change | −0.225 | −0.262 log 2 fold change | −0.625 | −0.055 log 2 fold change | −0.131 | −0.145 log 2 fold change | −0.346 | SSMD.CTG (ISC-enriched organoids [2]; [4]): −0.169; SSMD.CTG (ISC-enriched organoids [2]; [5]): −0.659; SSMD.CTG (ISC-enriched organoids [2]; [6]): −0.113; SSMD.CTG (ISC-enriched organoids [2]; [7]): −0.309; Dose.FC.LYZ.S (ISC-enriched organoids [3]; Dose 0.08 uM): 0.135 log 2 fold change; Dose.FC.LYZ.S (ISC-enriched organoids [3]; Dose 0.40 uM): 0.041 log 2 fold change; Dose.FC.LYZ.S (ISC-enriched organoids [3]; Dose 2.00 uM): −0.063 log 2 fold change; Dose.FC.LYZ.S (ISC-enriched organoids [3]; Dose 10.00 uM): −0.068 log 2 fold change; Z.LYZ.S (ISC-enriched organoids [3]; [4]): 0.873; Z.LYZ.S (ISC-enriched organoids [3]; [5]): 0.263; Z.LYZ.S (ISC-enriched organoids [3]; [6]): −0.408; Z.LYZ.S (ISC-enriched organoids [3]; [7]): −0.441; SSMD.LYZ.S (ISC-enriched organoids [3]; [4]): 0.612; SSMD.LYZ.S (ISC-enriched organoids [3]; [5]): 0.250; SSMD.LYZ.S (ISC-enriched organoids [3]; [6]): −0.454; SSMD.LYZ.S (ISC-enriched organoids [3]; [7]): −0.449
Cc1ccc(NCCCc2ccccc2)c(N)c1 [JSH-23] | 0.054 log 2 fold change | 0.474 | 0.079 log 2 fold change | 0.688 | −0.002 log 2 fold change | −0.017 | −0.046 log 2 fold change | −0.399 | 0.371 | 0.452 | −0.012 | −0.250 | 0.193 log 2 fold change | 0.462 | 0.230 log 2 fold change | 0.548 | 0.074 log 2 fold change | 0.176 | 0.046 log 2 fold change | 0.110 | SSMD.CTG (ISC-enriched organoids [2]; [4]): 0.462; SSMD.CTG (ISC-enriched organoids [2]; [5]): 0.536; SSMD.CTG (ISC-enriched organoids [2]; [6]): 0.179; SSMD.CTG (ISC-enriched organoids [2]; [7]): 0.139; Dose.FC.LYZ.S (ISC-enriched organoids [3]; Dose 0.08 uM): 0.164 log 2 fold change; Dose.FC.LYZ.S (ISC-enriched organoids [3]; Dose 0.40 uM): 0.106 log 2 fold change; Dose.FC.LYZ.S (ISC-enriched organoids [3]; Dose 2.00 uM): 0.005 log 2 fold change; Dose.FC.LYZ.S (ISC-enriched organoids [3]; Dose 10.00 uM): −0.026 log 2 fold change; Z.LYZ.S (ISC-enriched organoids [3]; [4]): 1.064; Z.LYZ.S (ISC-enriched organoids [3]; [5]): 0.686; Z.LYZ.S (ISC-enriched organoids [3]; [6]): 0.032; Z.LYZ.S (ISC-enriched organoids [3]; [7]): −0.171; SSMD.LYZ.S (ISC-enriched organoids [3]; [4]): 1.259; SSMD.LYZ.S (ISC-enriched organoids [3]; [5]): 0.611; SSMD.LYZ.S (ISC-enriched organoids [3]; [6]): 0.030; SSMD.LYZ.S (ISC-enriched organoids [3]; [7]): −0.147
